The values that follow come from patent publication US20100137221A1, “PEPTIDES THAT INTERACT WITH TOPOISOMERASE I AND METHODS THEREOF” (UNIVERSITY UTAH RESEARCH FOUNDATION, priority 2007, published 2010).

“Also recorded” adds a separate entry of the source. Read-outs that look alike come from different tables or passages of the source. No end group written: not given here.

The target in one experiment is T1, top 1-DNA binding (Homo sapiens, UniProt P11387).
T1 construct: made in house; host or cells: Sf9 insect cells (baculovirus) or human placenta
T1 sequence (P11387 1-765): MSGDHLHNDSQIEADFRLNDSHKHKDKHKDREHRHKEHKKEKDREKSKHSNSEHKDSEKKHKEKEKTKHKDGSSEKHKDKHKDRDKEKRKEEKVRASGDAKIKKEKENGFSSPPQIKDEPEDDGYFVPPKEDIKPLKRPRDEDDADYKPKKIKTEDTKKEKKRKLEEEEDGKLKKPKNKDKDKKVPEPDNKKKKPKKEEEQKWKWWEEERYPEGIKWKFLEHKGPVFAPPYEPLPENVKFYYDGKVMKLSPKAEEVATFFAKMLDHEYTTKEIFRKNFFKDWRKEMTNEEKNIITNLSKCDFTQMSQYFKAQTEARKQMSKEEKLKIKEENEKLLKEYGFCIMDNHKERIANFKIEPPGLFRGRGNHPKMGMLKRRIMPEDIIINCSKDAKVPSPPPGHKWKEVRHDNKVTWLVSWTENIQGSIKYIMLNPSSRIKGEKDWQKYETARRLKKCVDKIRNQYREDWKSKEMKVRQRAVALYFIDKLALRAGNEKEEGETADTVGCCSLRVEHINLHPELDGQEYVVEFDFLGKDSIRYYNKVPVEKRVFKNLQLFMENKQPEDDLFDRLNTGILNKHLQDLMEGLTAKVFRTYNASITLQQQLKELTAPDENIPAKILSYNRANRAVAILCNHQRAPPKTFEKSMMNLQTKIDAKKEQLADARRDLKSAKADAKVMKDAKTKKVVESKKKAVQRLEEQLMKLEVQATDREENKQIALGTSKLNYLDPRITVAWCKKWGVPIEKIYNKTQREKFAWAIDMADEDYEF
The experiment can be described thus: Biosensor analysis of the effect of peptide on top 1-DNA binding. As to conditions: 50 nM CPP4; top 1 5, 10 and 20 nM; biotinylated linear DNA. As for the experimental part:
Biotinylated linear DNA was attached to the flow cell via straptavidin. Top 1 (5, 10 and 20 nM) was applied.

The next experiment deals with HCT 116 tumor. As to the kind of experiment: In vivo HCT 116 tumor xenograft in nude mice. Further details: species or system nude (BalbC nu/nu) mice. As to conditions: all doses tested, i.p. The procedure: In vivo mouse studies: HCT 116 cells (4×10^6) were injected into the flanks of nude (BalbC nu/nu) mice for both experiments. The animals were randomized when the tumors were staged at 50 mm^3. In the first experiment, control animals were administered 0.1 ml of vehicle (α-MEM containing 0.05% methylcarboxycellulose and 2% DMSO) i.p., in the absence of peptide (PBS, control #1) or presence of T1BP2-T (control #2, 150 μg in 0.1 ml PBS) or T1BP3-T (control #3, 150 μg in 0.1 ml PBS) injected s.c. at site of tumor. […] Animals treated with 9AC were divided into 4 groups, each containing 5 mice. T1BP-T and PBS subcutaneous injections were administered as described above at the site of the tumor, 30 minutes after the i.p. injection of 9AC in a 50 μl volume. 9AC was dissolved in vehicle. Groups consisted of animals treated with a total of 4 mg/kg 9AC (low dose) in the absence or presence of T1BP2-T or a total of 8 mg/kg 9AC (high dose). Animals were treated with 1 or 2 mg/kg doses, twice a week over 2 weeks. In the second experiment, 18 mice were evaluated in three groups of six animals. Control animals were injected i.p. with 0.1 ml of vehicle (α-MEM containing 0.05% methylcarboxycellulose and 2% DMSO). […]

Experiment [1] deals with T2, top1 (Homo sapiens, UniProt P11387).
T2 sequence (P11387 1-765): T1 sequence (P11387 1-765)
The experiment can be described thus: DNA cleavage complex assay with 9AC. The experiment is classed as biochemical. More on the design: made in house; host or cells: Sf9 insect cells (baculovirus) or human placenta. As for the experimental part:
Top1 relaxation/cleavage activity assays: Peptides were assayed for their ability to interfere with or enhance relaxation of supercoiled DNA mediated by 100 kDa top1. The top1 and pBR322 were combined in a top1-reaction buffer (150 mM KCl, 12 mM MgCl2, 2 mM EDTA, 50 mM Tris HCl pH 7.5) at 37° C. for 30 minutes with 1 μM peptide. The 20 μl reactions were stopped with 1.0 μl of 1% SDS. Digestion of protein was performed by addition of 1.0 μg proteinase K for 30 minutes at 37° C., loaded with 5 μl of a standard 5×bromphenol blue/glycerol loading buffer and run in an 0.8% agarose gel in TAE (0.04 M Tris-acetate and 1.0 mM EDTA). […] The reactions were incubated for 30 minutes at 30° C. and then treated with 1 μl of 1 mg/ml proteinase K in 0.05% SDS for an additional 30 minutes at 37° C. to transform the 9AC-top1-DNA complexes into nicked DNA. This was followed by electrophoresis in an 0.8% agarose-TAE gel containing ethidium bromide. A control set of experiments and log serial dilutions of peptide were examined for each peptide. Percent cleavage was determined by liquid scintillation counting of excised bands using the method described by Marshall et al. (Marshall 2003).

For experiment [2], the target named is T2, top1. The experiment can be described thus: Biosensor binding specificity, top1 versus topoisomerase II and tubulin over T1BP2 surface. Further details: made in house; host or cells: Sf9 insect cells (baculovirus) or human placenta. As to conditions: 8.0 nM of each protein injected over T1BP2 channel. As for the experimental part: These top1 experiments were evaluated with BIAevaluation Software 3.1 using Langmuir Kinetics to model the interaction. The accuracy of the fit to the model is illustrated by dashed lines representing actual data and narrow lines representing the fitted curves.

In a further experiment the target is T3, 100 kDa top1 (Homo sapiens, UniProt P11387).
T3 construct: made in house; host or cells: Sf9 insect cells (baculovirus) or human placenta
T3 sequence (P11387 1-765): T1 sequence (P11387 1-765)
The experiment can be described thus: top1-mediated DNA relaxation assay (supercoiled pBR322). Format: biochemical. As to conditions: 1 μM peptide. The procedure: Top1 relaxation/cleavage activity assays: Peptides were assayed for their ability to interfere with or enhance relaxation of supercoiled DNA mediated by 100 kDa top1. The top1 and pBR322 were combined in a top1-reaction buffer (150 mM KCl, 12 mM MgCl2, 2 mM EDTA, 50 mM Tris HCl pH 7.5) at 37° C. for 30 minutes with 1 μM peptide. The 20 μl reactions were stopped with 1.0 μl of 1% SDS. Digestion of protein was performed by addition of 1.0 μg proteinase K for 30 minutes at 37° C., loaded with 5 μl of a standard 5×bromphenol blue/glycerol loading buffer and run in an 0.8% agarose gel in TAE (0.04 M Tris-acetate and 1.0 mM EDTA). DNA cleavage assays were performed in 20 μl volumes of reaction buffer (50 mM Tris-HCl (pH 7.5), 100 mM KCl, 10 mM MgCl2 0.5 mM EDTA, 0.2 mg/ml BSA), 500 ng of radiaolabeled (^3H thymidine) supercoiled rf (replicative form) M13 mp 19 DNA and 112 ng of top1. The reactions were incubated for 30 minutes at 30° C. and then treated with 1 μl of 1 mg/ml proteinase K in 0.05% SDS for an additional 30 minutes at 37° C. to transform the 9AC-top1-DNA complexes into nicked DNA. This was followed by electrophoresis in an 0.8% agarose-TAE gel containing ethidium bromide. […] Percent cleavage was determined by liquid scintillation counting of excised bands using the method described by Marshall et al. (Marshall 2003).

In experiment [3] the target is T2, top1. As to conditions: surface plasmon resonance. Background: In SPR one partner is held on a chip, and binding of the other changes the refractive index at the surface.
Description: Binding analysis: The binding analysis of the peptides was performed on a BIAcore 2000 instrument. A four channel CM5 sensor chip was derivatized with three top1 binding peptides (T1BPs 1, 2 and 4) and a control surface left blank. Catalytically active top1 was used as the mobile or analyte phase and diluted in 150 mM NaCl, 30 mM HEPES, 0.05% P20 and injected at various concentrations (8.0, 4.0, 2.0, 1.0 and 0.4 nM) through the instrument's microfluidics sample handling system at a flow rate of 30 μl/minute. With each injection of a particular concentration of top1, association and dissociation data for three peptides were generated. Binding constants were determined using the BIAevaluation 2.1 software.

On to DRVPLVHVIFNSFGY [CPP4], for which the “top 1 dissociation from DNA” value with top 1-DNA binding was “dissociation is slowed”.
Regarding `CC[C@@]1(O)C(=O)OCc2c1cc1n(c2=O)Cc2cc3c(N)cccc3nc2-1` [9AC, 9-amino camptothecin], in the experiment with HCT 116 tumor, the “anti-tumor effect of 9AC alone” value is on record as “significant anti-tumor effects”.
Regarding “SAYAATVRGPLSSAS [T1BP2, SAYAATVRGPLSSAS]”, at top1 [1] (0.45 μM 9AC, 20 ng top1), the “effect on cleavage (in words)” value is given as “increase in cleavage at all but one concentration”. Also, the “increase in cleavage complex formation” value at top1 [1] (0.45 μM and 0.9 μM 9AC, through the range of peptide concentrations tested) was “approximately 50%”. Further, on top1 [2], the “binding specificity for top1 verses topoisomerase II and tubulin” value is on record as “specificity for top1”. Further, the “effect on top1-mediated DNA relaxation” value at 100 kDa top1 is on record as “slight ability to inhibit top1-mediated relaxation; also recorded: Inhibition of top1 relaxation (slight increase in supercoiled DNA remaining)”. In addition, the “affinity for top1 (in words)” value is “high nanomolar affinity” on top1 [3] and “mid-nanomolar affinity” on top1 [3] (listed as T1PB2).
